The values below come from patent US20220096510A1, “METHOD AND PHARMACOLOGICAL COMPOSITION FOR THE PREVENTION OF RECURRENT INFECTIONS CAUSED BY CLOSTRIDIUM DIFFICILE” (UNIVERSIDAD ANDRÉS BELLO, priority 2018, published 2022).

Data set [1] has as its system C. difficile. To be noted: 10 mM; cited from earlier work.
Data set [2] deals with C. difficile. Particulars: cited from earlier work; for patients who presented late R-CDI: after 28 days.
Data set [3] has as its system C. difficile R20291 spores in Caco-2 cells. Description: Internalized (taurocholate- and ethanol-resistant) spores in infected Caco-2 cells by the seeding method. It counts as cell-based. To be noted: 30 μM nystatin before and during infection; then 0.1% taurocholate 1 h and 70% ethanol.
In the next data set the test system is T84 cells. Description: Cell viability by the trypan blue and MTT methods, T84. It counts as cell-based. Particulars: results not shown.
Data set [4] concerns C. difficile strain R20291. Briefly: Murine R-CDI model, intraperitoneal nystatin before and during CDI with oral vancomycin (Example 4).
For the next data set, the system named is Caco-2 cells. Description: Cell viability by the trypan blue and MTT methods, Caco-2. It counts as cell-based. To be noted: results not shown.
Data set [5] relates to C. difficile. Particulars: used after vancomycin; cited from earlier work.
For a further data set, the system named is C. difficile spores. It counts as in vivo, C57BL/6 mice. Particulars: day 2; nystatin 8,500 IU/kg oral from day -1.
For data set [6], the system named is C. difficile.
From the text: Mice were infected and dosed with an oral solution comprising a combination of nystatin and vancomycin starting from day 3 after infection (time of manifestation of the clinical symptoms).
In this sense, we studied the effect of a formulation comprising nystatin together with vancomycin administered from day 3.
For another data set, the system named is C. difficile toxin TcdB. Particulars: patients with CDI; cited from earlier work.

As for `N[C@@H](CS)C(=O)O` [cysteine], the “toxin production in vitro” value in the data set with C. difficile [1] is reported as “reduces toxin production”.
For `CCc1c(Cl)c(O)c(Cl)c(O)c1C(=O)O[C@H]1[C@H](O)[C@H](OC)[C@H](OC/C2=C\C=C\C[C@H](O)/C(C)=C/[C@H](CC)[C@@H](O[C@@H]3OC(C)(C)[C@@H](OC(=O)C(C)C)[C@H](O)[C@@H]3O)/C(C)=C/C(C)=C/C[C@@H]([C@@H](C)O)OC2=O)O[C@@H]1C` [fidaxomicin], in the data set with C. difficile [2], the “patients who presented late R-CDI” value is recorded as 19.7% and the “patients who presented early recurrences” value was 8%.
On to `C[C@@H]1[C@H](O)[C@@H](C)/C=C/C=C/CC/C=C/C=C/C=C/C=C/C(O[C@H]2O[C@H](C)[C@@H](O)[C@H](N)[C@@H]2O)CC2O[C@](O)(CC(O)C(O)CCC(O)CC(O)CC(O)CC(=O)O[C@H]1C)CC(O)C2C(=O)O` (stereo partly shown) [nystatin], for which the “amount of CFU counted (ethanol-resistant spores)” value in data set [3] is recorded as “significant decrease”. In addition, the cell viability entry in the data set with T84 cells and in the data set on Caco-2 cells was “no differences” throughout. For the same compound, the “weight increase on day 11 in respect of day 0” value in data set [4] (nystatin 12,000 IU/kg I.P. with vancomycin 50 mg/kg oral) amounted to 6%. Besides, the “weight variation versus control group” value in [4] (nystatin 12,000 IU/kg I.P. with vancomycin 50 mg/kg oral, versus vancomycin alone) was “no significant weight variations”.
`CO[C@H]1/C=C/O[C@@]2(C)Oc3c(C)c(O)c4c(O)c(c5c(nc6cc(C)ccn65)c4c3C2=O)NC(=O)/C(C)=C\C=C\[C@H](C)[C@H](O)[C@@H](C)[C@@H](O)[C@@H](C)[C@H](OC(C)=O)[C@@H]1C` [rifaximin]: in the data set on C. difficile [5], the efficiency rate is listed as 64%.
For `CN[C@H](CC(C)C)C(=O)N[C@H]1C(=O)N[C@@H](CC(N)=O)C(=O)N[C@H]2C(=O)N[C@H]3C(=O)N[C@H](C(=O)N[C@H](C(=O)O)c4cc(O)cc(O)c4-c4cc3ccc4O)[C@H](O)c3ccc(c(Cl)c3)Oc3cc2cc(c3O[C@@H]2O[C@H](CO)[C@@H](O)[C@H](O)[C@H]2O[C@H]2C[C@](C)(N)[C@H](O)[C@H](C)O2)Oc2ccc(cc2Cl)[C@H]1O` [vancomycin], the “levels of spores in stools” value in the data set on C. difficile spores amounted to 3.8 logarithmic units. In addition, in the data set with C. difficile [6] (after discontinuing treatment on day 8, nystatin 4,250 and 17,000 IU/kg), the “weight loss on day 11, the day of recurrence” value was “suffered a weight loss”. Besides, in the data set on C. difficile [6] (vancomycin 50 mg/kg alone, 5 days from day 3), the mice presenting recurrence stood at 75%. Further, in the data set on C. difficile [2], the “patients who presented late R-CDI” value is 35.5% and the “patients who presented early recurrences” value is given as 27%. In addition, the R-CDI rates in the data set on C. difficile toxin TcdB was 27%. Also, the mice presenting recurrence in [4] (5 days after finishing vancomycin 50 mg/kg, 7 days) came out at 100%.
